Results: ChEMBL document CHEMBL4411312, “Design, Synthesis, and Biological Evaluation of New 1-(Aryl-1 H-pyrrolyl)(phenyl)methyl-1 H-imidazole Derivatives as Antiprotozoal Agents” (J Med Chem, 2019)
The source made the active and inactive calls. The rule behind the calls is not given here.

Assays:
[1] = test system: Trypanosoma brucei rhodesiense; assay: Antiprotozoal activity against Trypanosoma brucei rhodesiense STIB900 trypomastigotes after 72 hrs by Alamar Blue dye-based fluorometric analysis; type: functional, organism-based; details: STIB900, 72 h
Leishmania donovani = assay: Antiprotozoal activity against Leishmania donovani MHOM/ET/67/L82 axenic amastigote after 72 hrs by inverted microscopic analysis; type: functional, organism-based; details: MHOM/ET/67/L82, 72 h
[2] = Selectivity index, ratio of CC50 for rat L6 cels to IC50 for erythrocytic stage of Plasmodium falciparum K1; type: toxicity; details: L6 cells, read-out: Ratio IC50
Trypanosoma cruzi [3] = assay: Potency index, ratio of benznidazole IC50 to compound IC50 for Trypanosoma cruzi Tulahuen C2C4 amastigotes infected in rat L6 cells after 96 hrs by inverted microscopic analysis; type: functional
[4] = Selectivity index, ratio of CC50 for rat L6 cels to IC50 for Leishmania donovani MHOM/ET/67/L82 axenic amastigote; type: toxicity; details: L6 cells, read-out: Ratio IC50
[5] = Cytotoxicity against rat L6 cels assessed as reduction in cell viability after 72 hrs by Alamar Blue dye-based fluorometric analysis; details: L6 cells
Plasmodium falciparum = assay: Antiprotozoal activity against erythrocytic stage of Plasmodium falciparum K1 after 48 hrs by [3H]- hypoxanthine incorporation assay; type: functional, organism-based
[6] = Selectivity index, ratio of CC50 for rat L6 cels to IC50 for Trypanosoma brucei rhodesiense STIB900 trypomastigotes; type: toxicity; details: L6 cells, read-out: Ratio IC50
Trypanosoma cruzi [7] = assay: Antiprotozoal activity against Trypanosoma cruzi Tulahuen C2C4 amastigotes infected in rat L6 cells after 96 hrs by inverted microscopic analysis; type: functional, organism-based; details: Tulahuen C2C4, L6, 96 h
Cytochrome P450 3A4 = Cytochrome P450 3A4 (Homo sapiens, UniProt P08684); assay: Inhibition of human CYP3A4 in presence of NADPH by luciferase reporter gene assay; type: ADME
Sequence of Cytochrome P450 3A4 (P08684 whole entry): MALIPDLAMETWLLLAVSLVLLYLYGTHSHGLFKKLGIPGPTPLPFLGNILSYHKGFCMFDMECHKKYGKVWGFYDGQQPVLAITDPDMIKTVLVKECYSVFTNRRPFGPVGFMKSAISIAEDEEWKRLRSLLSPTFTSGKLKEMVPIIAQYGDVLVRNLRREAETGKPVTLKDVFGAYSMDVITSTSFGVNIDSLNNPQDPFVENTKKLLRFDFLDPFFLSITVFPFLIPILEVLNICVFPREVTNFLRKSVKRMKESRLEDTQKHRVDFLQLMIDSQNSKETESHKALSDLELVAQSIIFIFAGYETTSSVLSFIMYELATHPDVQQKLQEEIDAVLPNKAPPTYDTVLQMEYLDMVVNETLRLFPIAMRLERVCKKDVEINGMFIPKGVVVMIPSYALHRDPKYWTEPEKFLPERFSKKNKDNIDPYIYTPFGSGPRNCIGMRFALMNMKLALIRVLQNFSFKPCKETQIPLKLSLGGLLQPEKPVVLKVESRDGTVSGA

[8] = target: Sterol 14-alpha demethylase (Trypanosoma cruzi (strain CL Brener)) (UniProt Q7Z1V1); assay: Binding affinity to Trypanosoma cruzi CYP51 at 5 to 10 uM by UV-vis spectrophotometry
Sequence of Sterol 14-alpha demethylase (Trypanosoma cruzi (strain CL Brener)) (Q7Z1V1 whole entry, looked up): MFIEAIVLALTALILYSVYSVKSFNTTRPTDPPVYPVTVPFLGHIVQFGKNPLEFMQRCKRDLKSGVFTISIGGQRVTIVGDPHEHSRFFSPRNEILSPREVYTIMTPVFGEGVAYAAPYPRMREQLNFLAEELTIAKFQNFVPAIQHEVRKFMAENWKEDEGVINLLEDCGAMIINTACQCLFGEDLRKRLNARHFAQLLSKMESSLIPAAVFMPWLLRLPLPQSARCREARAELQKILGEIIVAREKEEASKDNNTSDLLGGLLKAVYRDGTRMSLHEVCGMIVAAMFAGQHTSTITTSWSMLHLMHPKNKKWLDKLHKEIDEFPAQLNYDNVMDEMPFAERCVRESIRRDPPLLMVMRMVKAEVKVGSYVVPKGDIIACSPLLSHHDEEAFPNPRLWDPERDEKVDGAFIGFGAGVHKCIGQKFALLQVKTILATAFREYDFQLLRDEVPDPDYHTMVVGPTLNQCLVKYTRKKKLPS

Cytochrome P450 1A2 = target: T1, Cytochrome P450 1A2 (Homo sapiens, UniProt P05177); assay: Inhibition of human CYP1A2 in presence of NADPH by luciferase reporter gene assay; type: ADME
T1 sequence (P05177 whole entry): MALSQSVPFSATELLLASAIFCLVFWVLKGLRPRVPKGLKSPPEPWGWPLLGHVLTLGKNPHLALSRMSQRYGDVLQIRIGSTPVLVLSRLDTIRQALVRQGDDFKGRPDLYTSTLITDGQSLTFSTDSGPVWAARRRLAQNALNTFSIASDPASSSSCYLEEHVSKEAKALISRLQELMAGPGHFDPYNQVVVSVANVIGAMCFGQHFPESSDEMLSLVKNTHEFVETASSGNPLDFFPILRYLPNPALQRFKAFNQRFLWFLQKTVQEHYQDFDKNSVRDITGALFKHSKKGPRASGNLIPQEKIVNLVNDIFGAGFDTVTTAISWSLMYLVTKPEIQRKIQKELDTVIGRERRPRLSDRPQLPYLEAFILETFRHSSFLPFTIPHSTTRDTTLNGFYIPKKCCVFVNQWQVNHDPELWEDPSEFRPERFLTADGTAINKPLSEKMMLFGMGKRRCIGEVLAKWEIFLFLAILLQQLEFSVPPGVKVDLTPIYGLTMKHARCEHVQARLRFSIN

Cytochrome P450 2D6 = Cytochrome P450 2D6 (Homo sapiens, UniProt P10635); assay: Inhibition of human CYP2D6 in presence of NADPH by luciferase reporter gene assay; type: ADME
Sequence of Cytochrome P450 2D6 (P10635 whole entry): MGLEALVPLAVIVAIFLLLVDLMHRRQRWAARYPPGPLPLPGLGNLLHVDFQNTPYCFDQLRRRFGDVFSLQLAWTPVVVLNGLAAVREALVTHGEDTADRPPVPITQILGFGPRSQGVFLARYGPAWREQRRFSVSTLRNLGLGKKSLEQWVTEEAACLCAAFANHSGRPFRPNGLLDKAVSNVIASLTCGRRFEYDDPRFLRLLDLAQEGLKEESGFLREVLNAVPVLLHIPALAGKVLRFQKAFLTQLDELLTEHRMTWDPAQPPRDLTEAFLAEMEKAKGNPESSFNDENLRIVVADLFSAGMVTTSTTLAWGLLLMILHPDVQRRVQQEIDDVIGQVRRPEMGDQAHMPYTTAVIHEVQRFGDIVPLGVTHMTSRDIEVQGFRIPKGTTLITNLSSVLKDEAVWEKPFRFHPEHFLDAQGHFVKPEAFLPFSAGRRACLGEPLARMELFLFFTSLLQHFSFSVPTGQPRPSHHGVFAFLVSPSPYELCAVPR

[9] = Toxicity in BALB/c mouse infected with Trypanosoma cruzi CL Brener trypomastigotes assessed as loss of body weight at 25 mg/kg, ip bid treated for 4 consecutive days starting at 3 days post infection; type: organism-based; details: in vivo, 72 h
[10] = Toxicity in BALB/c mouse infected with Trypanosoma cruzi CL Brener trypomastigotes assessed as reduced mobility at 25 mg/kg, ip bid treated for 4 consecutive days starting at 3 days post infection; type: organism-based; details: in vivo, 72 h
[11] = Toxicity in BALB/c mouse infected with Trypanosoma cruzi CL Brener trypomastigotes assessed as hunched posture at 25 mg/kg, ip bid treated for 4 consecutive days starting at 3 days post infection; type: organism-based; details: in vivo, 72 h
[12] = Toxicity in BALB/c mouse infected with Trypanosoma cruzi CL Brener trypomastigotes assessed as lack of grooming at 25 mg/kg, ip bid treated for 4 consecutive days starting at 3 days post infection; type: organism-based; details: in vivo, 72 h
Trypanosoma cruzi [13] = assay: Antiprotozoal activity against Trypanosoma cruzi CL Brener trypomastigotes infected in BALB/c mouse assessed as reduction in parasitemia at 25 mg/kg, ip bid treated for 4 consecutive days starting at 3 days post infection by bioluminescence assay relative to control; type: functional; design: scale not given: the % may be the effect or the level left

SMILES | IC50 [1] | IC50 (Leishmania donovani) | selectivity ratio [2] | Ratio IC50 (Trypanosoma cruzi [3]) | selectivity ratio [4] | CC50 at 72 h [5] | IC50 (Plasmodium falciparum) | selectivity ratio [6] | IC50 (Trypanosoma cruzi [7]) | IC50 (Cytochrome P450 3A4) | Activity [8] | IC50 (Cytochrome P450 1A2) | IC50 (Cytochrome P450 2D6) | Activity [9] | Activity [10] | Activity [11] | Activity [12] | Activity (Trypanosoma cruzi [13])
CS(=O)(=O)c1ccc(-c2c[nH]cc2C(c2ccc(Cl)cc2Cl)n2ccnc2)cc1 (centres undefined) | 33 µM | 10.2 µM | 52 | 57 | 7 | 68 µM | 1.3 µM | 2 | 0.029 µM |  |  |  |  |  |  |  |  | 
Clc1ccc(C(c2c[nH]cc2-c2ccc(Cl)cc2-c2ccccc2)n2ccnc2)cc1 (centres undefined) | 34.4 µM | 15 µM | 253 | 4 - 12 |  | 14.9 µM | 0.059 µM |  | 0.203 µM |  |  |  |  |  |  |  |  | 
CSc1ccc(-c2c[nH]cc2C(c2ccc(Cl)cc2Cl)n2ccnc2)cc1 (centres undefined) |  |  |  | 57 |  |  |  |  | 0.043 µM |  |  |  |  |  |  |  |  | 
Clc1ccc(-c2c[nH]cc2[C@@H](c2ccc(Cl)cc2Cl)n2ccnc2)cc1 | 12.2 µM | 5.02 µM | 51 |  | 1 | 5.56 µM | 0.11 µM |  | 0.017 µM |  |  |  |  |  |  |  |  | 
Cc1ccc(-c2c[nH]cc2C(c2ccc(Cl)cc2Cl)n2ccnc2)cc1 (centres undefined) | 18.8 µM | 5.64 µM | 63 | 57 | 3 | 18.4 µM | 0.29 µM |  | 0.05 µM |  |  |  |  |  |  |  |  | 
COc1ccc(-c2c[nH]cc2C(c2ccc(Cl)cc2Cl)n2ccnc2)cc1 (centres undefined) | 28.4 µM | 5.51 µM | 32 | 57 | 3 | 14.8 µM | 0.46 µM |  | 0.05 µM |  |  |  |  |  |  |  |  | 
N#Cc1ccc(C(c2ccn(-c3ccc(C#N)cc3)c2)n2ccnc2)cc1 (centres undefined) | 27.8 µM | 84.4 µM | 34 |  | 2 | 139 µM | 4.09 µM | 5 |  |  |  |  |  |  |  |  |  | 
C=CCn1cc(C(c2ccc(Cl)cc2)n2ccnc2)cc1-c1ccc(Cl)cc1 (centres undefined) | 38.7 µM | 2.16 µM | 12 | 330 - 825 | 4 | 7.76 µM | 0.63 µM |  | 0.002 µM | 0.9 µM | Active | 1.2 µM | 2 µM |  |  |  |  | 
O=C(Cn1ccnc1[N+](=O)[O-])NCc1ccccc1 [BENZNIDAZOLE] |  |  |  |  |  | > 385 µM |  |  |  |  |  |  |  |  |  |  |  | 
FC(F)(F)c1ccc(-n2ccc(C(c3ccc(Cl)cc3)n3ccnc3)c2)cc1 (centres undefined) | 31.1 µM | 21.3 µM | 22 |  | 2 | 40.1 µM | 1.81 µM | 1 | > 74.7 µM |  |  |  |  |  |  |  |  | 
Clc1ccc(C(c2c[nH]cc2-c2ccc(Cl)c3ccccc23)n2ccnc2)c(Cl)c1 (centres undefined) | 16.5 µM | 4.83 µM | 15 |  | 1 | 4.9 µM | 0.33 µM |  | 0.048 µM |  |  |  |  |  |  |  |  | 
Clc1ccc(C(c2c[nH]cc2-c2ccc(Cl)cc2-n2cccc2)n2ccnc2)c(Cl)c1 (centres undefined) | 11.9 µM | 10.8 µM | 2 |  |  | 7.67 µM | 4.53 µM |  | 12 µM |  |  |  |  |  |  |  |  | 
N#Cc1ccc(C(c2ccn(-c3ccc(Cl)cc3)c2)n2ccnc2)cc1 (centres undefined) | 35.7 µM | 30.4 µM | 19 |  | 1 | 42.4 µM | 2.18 µM | 1 | 3.9 µM |  |  |  |  |  |  |  |  | 
Clc1ccc(C(c2c[nH]cc2-c2ccc(Cl)cc2-c2ccccc2)n2ccnc2)c(Cl)c1 (centres undefined) | 29 µM | 13.9 µM | 149 | 4 - 12 | 1 | 14.3 µM | 0.096 µM |  | 0.142 µM |  |  |  |  |  |  |  |  | 
Clc1ccc(C(c2c[nH]cc2-c2ccc(Cl)cc2-c2cccs2)n2ccnc2)c(Cl)c1 (centres undefined) | 8.31 µM | 2.78 µM | 18 | 61 | 2 | 4.93 µM | 0.27 µM |  | 0.027 µM |  |  |  |  |  |  |  |  | 
O=[N+]([O-])c1ccc(-n2ccc(C(c3ccc(Cl)cc3)n3ccnc3)c2)cc1 (centres undefined) | 40.6 µM | 25.2 µM | 18 |  | 3 | 82.4 µM | 4.57 µM | 2 | 6.18 µM |  |  |  |  |  |  |  |  | 
CCCCCCCCCCCCCCCCOP(=O)([O-])OCC[N+](C)(C)C [MILTEFOSINE] |  |  |  |  | 245 | 137 µM |  |  |  |  |  |  |  |  |  |  |  | 
Nc1nc(N)nc(Nc2ccc([As]3SCC(CO)S3)cc2)n1 (centres undefined) [MELARSOPROL] |  |  |  |  |  | 28.9 µM |  | 3280 |  |  |  |  |  |  |  |  |  | 
CCN(CC)CCCC(C)Nc1ccnc2cc(Cl)ccc12 (centres undefined) [CHLOROQUINE] |  |  |  |  |  | 92.8 µM |  |  |  |  |  |  |  |  |  |  |  | 
Clc1ccc(-c2c[nH]cc2[C@H](c2ccc(Cl)cc2Cl)n2ccnc2)cc1 | 9.21 µM |  | 28 |  |  | 2.56 µM | 0.092 µM |  | 0.0009 µM |  |  |  |  |  |  |  |  | 
O=[N+]([O-])c1ccc(-n2ccc(C(c3ccccc3)n3ccnc3)c2)cc1 (centres undefined) | 14.5 µM | 31.1 µM | 12 |  | 2 | 60.4 µM | 4.99 µM | 4 | 10.2 µM |  |  |  |  |  |  |  |  | 
Clc1ccc(C(c2c[nH]cc2-c2ccc3ccccc3c2)n2ccnc2)c(Cl)c1 (centres undefined) | 15.6 µM | 6.41 µM | 19 |  | 1 | 6.54 µM | 0.34 µM |  | 0.018 µM |  | Active |  |  |  |  |  |  | 
C[C@@H]1CC[C@H]2[C@@H](C)C(=O)O[C@@H]3O[C@@]4(C)CC[C@@H]1[C@]32OO4 [ARTEMISININ] |  |  | > 50000 |  |  | > 350 µM | 0.007 µM |  |  |  |  |  |  |  |  |  |  | 
CCc1ccc(-c2c[nH]cc2C(c2ccc(Cl)cc2Cl)n2ccnc2)cc1 (centres undefined) | 22.5 µM | 4.87 µM | 45 | 57 | 3 | 13.3 µM | 0.3 µM |  | 0.066 µM |  |  |  |  |  |  |  |  | 
O=[N+]([O-])c1ccc(C(c2ccn(-c3ccc([N+](=O)[O-])cc3)c2)n2ccnc2)cc1 (centres undefined) | 11.8 µM | 17.7 µM | 68 |  | 9 | 159 µM | 2.33 µM | 13 | 3.6 µM |  |  |  |  |  |  |  |  | 
CC(C)c1ccc(-c2c[nH]cc2C(c2ccc(Cl)cc2Cl)n2ccnc2)cc1 (centres undefined) | 24.2 µM | 5.22 µM | 45 | 57 | 2 | 12.7 µM | 0.28 µM |  | 0.066 µM |  |  |  |  |  |  |  |  | 
Cn1cc(C(c2ccc(Cl)cc2)n2ccnc2)cc1-c1ccc(Cl)cc1 (centres undefined) | 40 µM | 5.7 µM | 9 | 330 - 825 | 2 | 12.1 µM | 1.41 µM |  | 0.003 µM | 1.1 µM | Active | 2 µM | 3 µM | Non-Toxic | Non-Toxic | Non-Toxic | Non-Toxic | 99.4%
